# Test system: cellular pERK in NCI-H1975 cells (EGFR/L858R-T790M)
# Test: pERK potency assay (In Cell ELISA)
# Format: cell-based
# Details: Homo sapiens, 1 h compound incubation
# From the text: The assay measures the ability of a compound to inhibit SOS1 function in cells. SOS1 activates RAS proteins by catalyzing the conversion of RAS GDP to RAS GTP in response to receptor tyrosine kinase activation. Activation of RAS induces a sequence of cellular signaling events that result in increased phosphorylation of ERK at Threonine 202 and Tyrosine 204 (pERK). The procedure (i.e., In Cell ELISA as described below) measures the level of cellular pERK in response to a test compound in NCI-H1975 cells (EGFR/L858R-T790M).
# First, NCI-H1975 cells were grown and maintained using media and procedures recommended by the ATCC. A day before compound addition, cells were plated in poly-D-lysine coated 96-well cell culture plates (Corning® BioCoat® Cat #356640) at 25000 cells/well/100 μL and grown overnight in an incubator at 37° C. with 5% CO2. A solution of a test compound was prepared with 3-fold serial dilutions in DMSO having a top concentration of 6 mM. On the day of the assay, 50 μL of a test compound dilution in media was added to each well of cell culture plate with a final compound concentration in the range of 0.001 μM to 20 μM. After addition of the compound, cells were incubated for 1 h at 37° C. with 5% CO2, after which the culture medium was removed. Cells were fixed with 4% formaldehyde in phosphate-buffered saline (PBS) and incubated at RT for 20 min. The plate was washed three times with PBST (PBS with 0.05% Tween®-20), followed by incubation with 100 μL of pre-cooled methanol at −20° C. for 20 min. After incubation, methanol was removed. The plate was again washed with PBST. Cells were then permeabilized with 100 μL/well of 0.1% Triton X-100 in PBS at RT for 20 min and then quenched with a quenching buffer (PBST containing 1% H2O2 and 0.1% sodium azide) for 20 min at RT with gentle shaking. After washing once with PBST, a blocking buffer (250 uL/well, Pierce™ Protein-Free-PBS Blocking Buffer, Cat #37572) was then added to the cells for 1-h incubation at RT, followed by an anti-pERK antibody (cell signaling, 1:1000 dilution in 5% BSA in PBST) incubation overnight at 4° C. and a secondary antibody-HRP (Jackson immunoresearch, 1:3000 dilution in 5% BSA in PBST) incubation at RT for 1 h. PBST wash was carried out after each step three times. Before the addition of a substrate (Advansta ELISABright™), the plate was washed with PBS twice to remove detergent residues. The Cellular pERK level was determined using the microplate reader (Biotek Synergy™ H1) to detect the chemiluminescence signal. IC50 was determined by fitting a 4-parameter sigmoidal concentration-response model.
row,IC50,SMILES
1,< 100 nM,Cc1c(C#N)cccc1[C@@H](C)/N=c1\nc(C)n(C)c2cnc(N3CCC(F)(F)CC3)cc12 [Compound 59]
2,< 100 nM,Cc1c(C#N)cccc1[C@@H](C)/N=c1\nc(C)n(C)c2cnc(N3CC4CC4C3)cc12 (stereo partly shown) [Compound 72]
3,< 100 nM,"Cc1c([C@@H](C)/N=c2\nc(C)n(C)c3cnc(C4=CCN(C(N)=O)CC4)cc23)cccc1C(F)(F)F [Compound 43, (R,Z)-4-(1,2-dimethyl-4-((1-(2-methyl-3-(trifluoromethyl)phenyl)ethyl)imino)-1,4-dihydropyrido[3,4-d]pyrimidin-6-yl)-3,6-dihydropyridine-1(2H)-carboxamide]"
4,< 100 nM,Cc1c(C#N)cccc1[C@@H](C)/N=c1\nc(C)n(C)c2cnc(N3CCC(C)(O)CC3)cc12 [Compound 67]
5,< 100 nM,"CC(=O)N1CC=C(c2cc3/c(=N/[C@H](C)c4cccc(C(F)(F)F)c4C)nc(C)n(C)c3cn2)CC1 [Compound 2, (R,Z)-1-(4-(1,2-dimethyl-4-((1-(2-methyl-3-(trifluoromethyl)phenyl)ethyl)imino)-1,4-dihydropyrido[3,4-d]pyrimidin-6-yl)-3,6-dihydropyridin-1(2H)-yl)ethan-1-one]"
6,< 100 nM,Cc1c(C#N)cccc1[C@@H](C)/N=c1\nc(C)n(C)c2cnc(N3CC(F)C3)cc12 [Compound 69]
7,< 100 nM,"CC(=O)N1CCC(F)(c2cc3/c(=N/[C@H](C)c4cccc(C(F)(F)F)c4C)nc4n(c3cn2)CCO4)CC1 [Compound 33, (R,Z)-1-(4-fluoro-4-(5-((1-(2-methyl-3-(trifluoromethyl)phenyl)ethyl)imino)-8,9-dihydro-5H-oxazolo[3,2-a]pyrido[4,3-e]pyrimidin-3-yl)piperidin-1-yl)ethan-1-one]"
8,< 100 nM,"Cc1c(C#N)cccc1[C@@H](C)/N=c1\nc(C)n(C)c2cnc(N3CCOCC3)cc12 [Compound 54, (R,Z)-3-(1-((1,2-dimethyl-6-morpholinopyrido[3,4-d]pyrimidin-4(1H)-ylidene)amino)ethyl)-2-methylbenzonitrile]"
9,< 100 nM,Cc1c([C@@H](C)/N=c2\nc(C)n(C)c3cnc(N4CCC5(CC5)C4)cc23)cccc1C(F)(F)F [Compound 50]
10,< 100 nM,Cc1c(C#N)cccc1[C@@H](C)/N=c1\nc(C)n(C)c2cnc(N3CCC3)cc12 [Compound 71]
11,< 100 nM,Cc1c(C#N)cccc1[C@@H](C)/N=c1\nc(C)n(C)c2cnc(N3CCC4(CC4)C3)cc12 [Compound 65]
12,< 100 nM,Cc1c(C#N)cccc1[C@@H](C)/N=c1\nc(C)n(C)c2cnc(N3CCO[C@H](C)C3)cc12 [Compound 61]
13,< 100 nM,"CC(=O)N1CCN2c3cc4/c(=N/[C@H](C)c5cccc(C(F)F)c5F)ncn(C)c4cc3OC[C@H]2C1 [Compound 92, 1-((R,Z)-11-(((R)-1-(3-(difluoromethyl)-2-fluorophenyl)ethyl)imino)-8-methyl-1,2,4a,5,8,11-hexahydropyrazino[1′,2′:4,5][1,4]oxazino[3,2-g]quinazolin-3(4H)-yl)ethan-1-one]"
14,< 100 nM,"CC(=O)N1CCC(F)(c2cc3/c(=N/[C@H](C)c4cccc(C(F)(F)F)c4C)nc(C)n(C)c3cn2)C[C@H]1C (stereo partly drawn) [Compound 45, 1-((2R)-4-((Z)-1,2-dimethyl-4-(((R)-1-(2-methyl-3-(trifluoromethyl)phenyl)ethyl)imino)-1,4-dihydropyrido[3,4-d]pyrimidin-6-yl)-4-fluoro-2-methylpiperidin-1-yl)ethan-1-one]"
15,< 100 nM,COC1CN(c2cc3/c(=N/[C@H](C)c4cccc(C#N)c4C)nc(C)n(C)c3cn2)C1 [Compound 76]
16,< 100 nM,"CC(=O)N1CCC(F)(c2cc3/c(=N/[C@H](C)c4cccc(C(F)F)c4F)nc(C)n(C)c3cn2)CC1 [Compound 6, (R,Z)-1-(4-(4-((1-(3-(difluoromethyl)-2-fluorophenyl)ethyl)imino)-1,2-dimethyl-1,4-dihydropyrido[3,4-d]pyrimidin-6-yl)-4-fluoropiperidin-1-yl)ethan-1-one]"
17,< 100 nM,"CC(=O)N1CC=C(c2cc3/c(=N/[C@H](C)c4cccc(C(F)(F)F)c4C)nc4n(c3cn2)CCC4)CC1 [Compound 25, (R,Z)-1-(4-(5-((1-(2-methyl-3-(trifluoromethyl)phenyl)ethyl)imino)-5,7,8,9-tetrahydropyrido[4,3-e]pyrrolo[1,2-a]pyrimidin-3-yl)-3,6-dihydropyridin-1(2H)-yl)ethan-1-one]"

row,IC50,SMILES
1,< 100 nM,"CC(=O)NCC#Cc1cc2/c(=N/[C@H](C)c3cccc(C(F)F)c3F)nc(C)n(C)c2cn1 [Compound 85, (R,Z)—N-(3-(4-((1-(3-(difluoromethyl)-2-fluorophenyl)ethyl)imino)-1,2-dimethyl-1,4-dihydropyrido[3,4-d]pyrimidin-6-yl)prop-2-yn-1-yl)acetamide]"
2,< 100 nM,"CC(=O)N1CCC(F)(c2cc3/c(=N/[C@H](C)c4cccc(C(F)(F)F)c4C)nc(C)n(C)c3cn2)CC1 [Compound 1, (R,Z)-1-(4-(1,2-dimethyl-4-((1-(2-methyl-3-(trifluoromethyl)phenyl)ethyl)imino)-1,4-dihydropyrido[3,4-d]pyrimidin-6-yl)-4-fluoropiperidin-1-yl)ethan-1-one]"
3,< 100 nM,Cc1c(C#N)cccc1[C@@H](C)/N=c1\nc(C)n(C)c2cnc(C3(C(F)F)CC3)cc12 [Compound 19]
4,< 100 nM,"CC(=O)NC/C=C/c1cc2/c(=N/[C@H](C)c3cccc(C(F)F)c3F)nc(C)n(C)c2cn1 [Compound 98, N-((E)-3-((Z)-4-(((R)-1-(3-(difluoromethyl)-2-fluorophenyl)ethyl)imino)-1,2-dimethyl-1,4-dihydropyrido[3,4-d]pyrimidin-6-yl)allyl)acetamide]"
5,< 100 nM,Cc1c(C#N)cccc1[C@@H](C)/N=c1\nc(C)n(C)c2cnc(N3CCC(F)(F)C3)cc12 [Compound 66]
6,< 100 nM,"CC(=O)N1CCC(F)(c2cc3/c(=N/[C@H](C)c4cccc(C(F)(F)F)c4C)nc(C)n(C)c3cn2)CC1(C)C (stereo partly drawn) [Compound 46, 1-(4-((Z)-1,2-dimethyl-4-(((R)-1-(2-methyl-3-(trifluoromethyl)phenyl)ethyl)-imino)-1,4-dihydropyrido[3,4-d]pyrimidin-6-yl)-4-fluoro-2,2-dimethylpiperidin-1-yl)ethan-1-one]"
7,< 100 nM,"C#C[C@@H](/N=c1\ncn(C)c2cc(=O)n(C3(C(F)F)CC3)cc12)c1cccc(C(F)(F)F)c1C [Compound 21, (R,Z)-6-(1-(difluoromethyl)cyclopropyl)-1-methyl-4-((1-(2-methyl-3-(trifluoromethyl)phenyl)prop-2-yn-1-yl)imino)-4,6-dihydropyrido[4,3-d]pyrimidin-7(1H)-one]"
8,< 100 nM,"COc1nc(C2(F)CCN(C(C)=O)CC2)cc2/c(=N/[C@H](C)c3cccc(C(F)(F)F)c3C)ncn(C)c12 [Compound 23, (R,Z)-1-(4-fluoro-4-(8-methoxy-1-methyl-4-((1-(2-methyl-3-(trifluoromethyl)phenyl)ethyl)imino)-1,4-dihydropyrido[3,4-d]pyrimidin-6-yl)piperidin-1-yl)ethan-1-one]"
9,< 100 nM,CC(=O)N1CCC(F)(c2ccc3c(c2)/c(=N/[C@H](C)c2cccc(C(F)(F)F)c2C)ncn3C)CC1 [Compound 17]
10,< 100 nM,CC(=O)N1CCC(F)(c2cc3/c(=N/[C@H](C)c4cccc(C#N)c4C)nc4n(c3cn2)CCO4)CC1 [Compound 35]
11,< 100 nM,Cc1c([C@@H](C)/N=c2\nc(C)n(C)c3cnc(N4CCC5(CC4)CC5)cc23)cccc1C(F)(F)F [Compound 51]
12,< 100 nM,CC(=O)N1CCC(F)(c2cnc3c(c2)/c(=N/[C@H](C)c2cccc(C(F)(F)F)c2C)nc(C)n3C)CC1 [Compound 13]
13,< 100 nM,Cc1c([C@@H](C)/N=c2\nc3n(c4cnc(N5CCOCC5)cc24)CCC3)cccc1C(F)(F)F [Compound 77]
14,< 100 nM,Cc1c(C#N)cccc1[C@@H](C)/N=c1\nc(C)n(C)c2cnc(N3CCCC3)cc12 [Compound 57]
15,< 100 nM,Cc1c([C@@H](C)/N=c2\nc(C)n(C)c3ccc(C4=CCOCC4)cc23)cccc1C(F)(F)F [Compound 36]
16,< 100 nM,CC(=O)N1CC=C(c2cc3/c(=N/[C@H](C)c4cccc(C(F)(F)F)c4C)ncn(C4CC4)c3cn2)CC1 [Compound 14]
17,< 100 nM,Cc1c(C#N)cccc1[C@@H](C)/N=c1\nc(C)n(C)c2cnc(N3CCC4(CC3)CC4)cc12 [Compound 60]
